# Reference: patent US12006330B2, “Substituted macrocyclic compounds and related methods of treatment” (Alkermes, Inc., priority 2020, dated 2024)
# Columns and labels:
# [1] = biological target: T1, human orexin-2 receptor (OX2R) (Homo sapiens, UniProt O43614); assay: Human OX2R IP1 assay; format: cell-based; conditions: T-Rex CHO cells stably overexpressing human OX2R; IP1 accumulation; 1 hr at 37 degrees C; mean EC50
# T1 construct: expressed in transfected cells
# T1 sequence (O43614 1-444): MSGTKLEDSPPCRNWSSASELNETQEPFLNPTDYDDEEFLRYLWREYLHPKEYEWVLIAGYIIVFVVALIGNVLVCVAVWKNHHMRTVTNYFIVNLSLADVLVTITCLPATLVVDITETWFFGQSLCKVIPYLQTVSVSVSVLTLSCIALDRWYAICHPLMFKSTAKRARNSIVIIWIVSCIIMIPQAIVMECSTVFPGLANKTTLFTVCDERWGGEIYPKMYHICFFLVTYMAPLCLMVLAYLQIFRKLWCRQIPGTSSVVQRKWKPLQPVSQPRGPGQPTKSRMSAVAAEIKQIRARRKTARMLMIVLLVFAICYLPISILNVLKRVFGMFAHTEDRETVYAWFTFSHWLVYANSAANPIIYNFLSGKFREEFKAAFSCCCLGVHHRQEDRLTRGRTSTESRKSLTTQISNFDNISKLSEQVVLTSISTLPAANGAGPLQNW
# In short: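 T-Rex CHO cells stably expressing human OX2R, doxycycline-induced (1 μg/mL) overnight, treated with compounds 1 h at 37 °C in pH 7.4 buffer with 50 mM LiCl. IP1 accumulation read by HTRF competitive immunoassay after 1 h at room temperature; agonist EC50 reported as mean ± S.E.M.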
# MDCK-MDR1 cells = assay: MDCK-MDR1 permeability assay; format: in vitro ADME; conditions: MDCK-MDR1 cells; for Efflux ratio (ER): Papp B→A divided by Papp A→B, 3 μM, 2 hours; for Papp A → B (10^−6 cm/s): test compound 3 μM, 2 hours at 37 degrees C, apical to basolateral
# In short: (§1)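 Test compound at 3 μM in HBSS was dosed apical-to-basolateral (with 100 μM Lucifer Yellow) and basolateral-to-apical across MDCK-MDR1 monolayers at 37 °C for 2 h. Receiver and donor samples were quantified by LC-MS/MS. Papp = dQ/dt×1/A×C0, efflux ratio = Papp(B→A)/Papp(A→B), and percent recovery was also derived.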
# human hepatocytes = assay: Hepatocytes stability assay (human hepatocytes); format: in vitro ADME; conditions: for CLint (μL/min/million cells): cryopreserved human hepatocytes (pool of 50 mixed gender), 1 μM test compound, 1×10^6 cell/mL, 37 degrees C; for Extraction Ratio (ER): human hepatocytes, scaled hepatic clearance divided by liver blood flow (well-stirred model, fu assumed unity)
# In short: (§2)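 Compound at 1 μM (0.1% DMSO) was incubated with cryopreserved pooled human hepatocytes, 1×10^6 cells/mL in Krebs-Henseleit buffer, at 37 °C, sampled up to 240 min. Parent depletion by LC-MS/MS; half-life from first-order decay gave CLint, scaled to hepatic clearance by well-stirred model (fu assumed 1) and extraction ratio.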
# MDR1 = assay: MDCK-MDR1 permeability assay; format: in vitro ADME; conditions: dog, MDCK-MDR1, MDCK-MDR1 cells; for efflux ratio at 2 h, 3 μM: Papp B→A divided by Papp A→B, read-out: Efflux ratio (ER); for Papp A→B at 2 h, 3 μM: test compound 3 μM, 2 hours at 37 degrees C, apical to basolateral
# In short: as §1
# [2] = Hepatocytes stability assay (human hepatocytes); format: in vitro ADME; conditions: both sexes, human, cryopreserved hepatocytes, cryopreserved human hepatocytes (pool of 50 mixed gender); 1 μM test compound; 1×10^6 cell/mL; 37 degrees C; read-out: CLint (μL/min/million cells)
# In short: as §2
# Sprague-Dawley rats = assay: Assessment of wake promotion in Sprague-Dawley rats (EEG/EMG); format: in vivo, rat; conditions: male Sprague-Dawley rats; PO; 3 mpk; dosed at ZT5; 6-hour post-dose period
# Procedure: Wake promotion was assessed using electroencephalography (EEG) and electromyography (EMG) in adult male Sprague-Dawley rats. All rats (Charles River Laboratories, Raleigh, NC, USA) were intraperitoneally implanted with telemetry devices (F50-EEE, Data Sciences International Inc., MN, USA) under isoflurane anesthesia. For EEG, stainless steel screws were implanted over frontal cortex and parietal cortex, and reference screws were placed over cerebellum. Additionally, an electrode was placed in neck muscle for EMG. Rats were given carprofen post-surgery and underwent a 7 to 10-day recovery period. Rats habituated to the experimental room for 7 days and were maintained on a 12-hour light-dark cycle.
# EEG and EMG data were recorded using the DSI telemetry system and Ponemah software (Data Sciences International Inc., MN, USA). Sleep-wake stages were scored both manually and with Somnivore, a supervised machine learning software platform, in 10 second epochs. Records were visually inspected as needed post-processing.
# All test compounds were dissolved in 5% DMSO and suspended in 95% saline with 0.5% methylcellulose and 0.5% tween. […] Unless otherwise indicated, all compounds were dosed orally. Recordings for each rat were initiated immediately after dosing and lasted for 6 hours post-dose.
# Two key endpoints include wakefulness time and cortical activation time. Wakefulness time is derived from the sleep-wake stage analysis. Cortical activation time is based on the duration in which frontal gamma oscillatory activity (30-100 Hz), a key feature of wakefulness, was elevated relative to a pre-treatment baseline. Mean cortical activation time was computed relative to vehicle treatment for the 6-hour post-dose period.
SMILES,EC50 [1],Efflux ratio (ER) (MDCK-MDR1 cells),Papp A → B (10^−6 cm/s) (MDCK-MDR1 cells),CLint (μL/min/million cells) (human hepatocytes),Extraction Ratio (ER) (human hepatocytes),"efflux ratio at 2 h, 3 μM (MDR1)","Papp A→B at 2 h, 3 μM (MDR1)",hepatocyte CLint at 1 μM [2],Mean cortical activation time (% vehicle treatment) (Sprague-Dawley rats)
Cc1ncnc2c1[C@H]1CC[C@H](CC1)OC[C@H]1[C@@H](NS(C)(=O)=O)CCCN1C(=O)CO2 (stereo in doubt) [Compound 72],< 10 nM,49,<0.091 10^−6 cm/s,<1.9 μL/min/million cells,<0.22,–,–,–,–
O=C1COc2ccccc2[C@H]2CC[C@H](CC2)OCC2[C@@H](NS(=O)(=O)C3CCOC3)CCCN12 (stereo in doubt) [Compound 73],< 10 nM,>100,0.23 10^−6 cm/s,21 μL/min/million cells,0.76,–,–,–,–
CC(C)S(=O)(=O)N[C@H]1CCCN2C(=O)COc3ncccc3C3CCC(CC3)OC[C@@H]12 (stereo in doubt) [Compound 15],–,–,–,–,0.69,100,0.34 ×10⁻⁶ cm/s,15 µL/min/1e6 cells,107.59 % vehicle treatment
Cc1ccnc2c1[C@H]1CC[C@H](CC1)OCC1[C@@H](NS(=O)(=O)C3CC3)CCN1C(=O)CO2 (stereo in doubt) [Compound 92],–,–,–,–,0.78,18,3.4 ×10⁻⁶ cm/s,24 µL/min/1e6 cells,97.94 % vehicle treatment
CS(=O)(=O)N[C@H]1CCCN2C(=O)COc3ccc(O)cc3[C@H]3CC[C@H](CC3)OCC12 (stereo in doubt) [Compound 96],–,–,–,–,0.25,9.2,0.53 ×10⁻⁶ cm/s,2.3 µL/min/1e6 cells,74.48 % vehicle treatment
CC(C)S(=O)(=O)N[C@H]1CCN2C(=O)COc3ncccc3[C@H]3CC[C@H](CC3)OCC12 (stereo in doubt) [Compound 101],–,–,–,–,0.74,14,3.9 ×10⁻⁶ cm/s,19 µL/min/1e6 cells,109.66 % vehicle treatment
O=C1COc2ncncc2[C@H]2CC[C@H](CC2)OCC2[C@@H](NS(=O)(=O)C3CC3)CCCN12 (stereo in doubt) [Compound 97],–,–,–,–,0.43,44,0.42 ×10⁻⁶ cm/s,5.2 µL/min/1e6 cells,79.25 % vehicle treatment
Cc1cccc2c1C1CCC(CC1)OC[C@H]1[C@@H](NS(C)(=O)=O)CCCN1C(=O)CO2 (stereo in doubt) [Compound 2],–,–,–,–,0.80,46,0.69 ×10⁻⁶ cm/s,28 µL/min/1e6 cells,182.50 % vehicle treatment
O=C1COc2ccccc2C2CCC(CC2)OC[C@H]2[C@@H](NS(=O)(=O)C3CC3)CCCN12 (stereo in doubt) [Compound 1],–,–,–,–,0.82,6.7,1.6 ×10⁻⁶ cm/s,31 µL/min/1e6 cells,160.00 % vehicle treatment
Cc1ccnc2c1C1CCC(CC1)OC[C@H]1[C@@H](NS(=O)(=O)C(C)C)CCCN1C(=O)CO2 (stereo in doubt) [Compound 10],–,–,–,–,0.58,> 100,0.38 ×10⁻⁶ cm/s,9.4 µL/min/1e6 cells,82.61 % vehicle treatment
Cc1ncnc2c1[C@H]1CC[C@H](CC1)OCC1[C@@H](NS(=O)(=O)C3CC3)CCCN1C(=O)CO2 (stereo in doubt) [Compound 68],–,–,–,–,0.37,72,0.24 ×10⁻⁶ cm/s,3.9 µL/min/1e6 cells,157.14 % vehicle treatment
CC(C)S(=O)(=O)N[C@H]1CCCN2C(=O)COc3ccccc3C3CCC(CC3)OC[C@@H]12 (stereo in doubt) [Compound 3],–,–,–,–,0.76,10,1.8 ×10⁻⁶ cm/s,21 µL/min/1e6 cells,204.79 % vehicle treatment
Cc1ccnc2c1[C@H]1CC[C@H](CC1)OCC1[C@@H](NS(=O)(=O)C(C)C)CCN1C(=O)CO2 (stereo in doubt) [Compound 93],–,–,–,–,0.75,11,4.7 ×10⁻⁶ cm/s,20 µL/min/1e6 cells,138.14 % vehicle treatment
Cc1ccnc2c1[C@H]1CC[C@H](CC1)OCC1[C@@H](NS(=O)(=O)C3CCOC3)CCCN1C(=O)CO2 (stereo in doubt) [Compound 90],< 10 nM,48,0.62 10^−6 cm/s,11 μL/min/million cells,0.61,–,–,–,–
